Assay results as given in US11926826B2, “Twist signaling inhibitor compositions and methods of using the same” (City of Hope, priority 2016, dated 2024).

Tested on: SUM 1315 cells
Assay: Wound healing assay, SUM 1315
Format: cell-based, human
Conditions: YTZ3-15 transfection; compared to siQ
Experimental: Wound Healing Assay. To examine direction cell migration in vitro wound healing assays were performed as described previously. In summary, SUM 1315 cells (parental, eGFP+luc, shScram, shTwistA, and shTwistB) were grown in the conditions described above (2.1) in 6-well tissue culture plates. Once cells reached 80% confluency, a sterile 200 μl pipette tip was used to scratch a line in the monolayer of cells. Images were taken immediately after the scratch and at several time points thereafter using a Nikon TE-2000S microscope and SPOT Advanced software (Diagnostic Instruments, Sterling Heights, MI). Care was taken to always capture images in the same location for each time point. Additionally, SUM 1315 cells were transfected with siQ, siTwistA, or siTwistB using YTZ3-15 at a 50 nM final concentration. Cells were incubated with YTZ3-15+siRNA for 24 hours at 37° C., 5% CO2, and 90% humidity in a tissue culture incubator; the plates were then scratched with the 200 μl pipette tip.

Substance: si419: anti-TWIST siRNA; passenger 5′-GGACAAGCUGAGCAAGAUU-3′ (SEQ ID No: 1), guide 5′-AAUCUUGCUCAGCUUGUCCUU-3′ (SEQ ID No: 2) (listed as RNA, chemistry not fully specified)
- directional migration: decreased directional migration
